Laboratory results from ChEMBL document CHEMBL3044559, “Synthesis and antidepressant-like action of N-(2-hydroxyethyl) cinnamamide derivatives in mice” (2011).

Experiments:
Mus musculus [1] = assay: Antidepressant like activity in Mus musculus Kunming (mouse) assessed as reduction of immobility time at 40 mg/kg, po measured during last 4 min of 6 min test by tail suspension test (reference value: 105.7 +/- 10.03 sec); type: functional
Mus musculus [2] = assay: Antidepressant like activity in Mus musculus Kunming (mouse) assessed as reduction of immobility time at 40 mg/kg, po measured during last 4 min of 6 min test by forced swimming test (reference value: 183.3 +/- 12.67 sec); type: functional

Structure (SMILES)	Time (Mus musculus [1])	Time (Mus musculus [2])
O=C(/C=C/c1cccc(O)c1)NCCO	54 s	102.8 s
O=C(/C=C/c1ccc(O)cc1)NCCO	71 s	133.3 s
COc1ccccc1/C=C/C(=O)NCCO	38.67 s	159.1 s
COc1cccc(/C=C/C(=O)NCCO)c1	43.33 s	141 s
COc1ccc(/C=C/C(=O)NCCO)c(OC)c1	39.67 s	143.5 s
COc1ccc(/C=C/C(=O)NCCO)cc1OC	39.33 s	157.8 s
COc1cc(/C=C/C(=O)NCCO)cc(OC)c1OC	76.33 s	165.5 s
COc1cc(/C=C/C(=O)NCCO)ccc1O	45 s	55 s
O=C(/C=C/c1ccccc1O)NCCO	44.83 s	146.7 s
CN(C)c1ccc(/C=C/C(=O)NCCO)cc1	64.67 s	105.5 s
COc1ccc(/C=C/C(=O)NCCO)cc1	31.33 s	167.5 s
O=C(/C=C/c1ccc(Cl)cc1)NCCO	76.67 s	168 s
O=C(/C=C/c1ccc(F)cc1)NCCO	75 s	130.8 s
O=C(/C=C/c1ccc(Br)cc1)NCCO	57 s	119.7 s
CNCCC(Oc1ccc(C(F)(F)F)cc1)c1ccccc1 (stereo unspecified) [FLUOXETINE]	14.17 s	–
O=C(/C=C/c1ccccc1)NCCO [IDROCILAMIDE]	25 s	101.2 s
